One test has as its system W2 strain. Kind of test: parasite proliferation assay in infected red blood cells (SYBR Green I), W2 strain. The settings on record: Plasmodium falciparum, Erythrocyte. Format: cell-based, Plasmodium falciparum. An excerpt:
Compounds of the invention can be assayed to measure their capacity to inhibit proliferation of parasitemia in infected red blood cells. The proliferation is quantified by the addition of SYBR Green I (INVITROGEN)® dye which has a high affinity for double stranded DNA.

Another test deals with 3D7 P. falciparum strain. The test can be described thus: parasite proliferation assay in infected red blood cells (SYBR Green I). It counts as cell-based, Plasmodium falciparum. The conditions noted are these: Plasmodium falciparum, 3D7, Erythrocyte, 3D7 strain; read-out: EC50 3D7 strain. A digest of the protocol:
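P. falciparum 3D7 grown in O+ human erythrocytes to 3–8% parasitemia and exposed to compounds. Proliferation read as the increase in parasite DNA. Detection used SYBR Green I in saponin/triton-X/EDTA lysis buffer, with overnight lysis at room temperature.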

In general, EC50 refers to the concentration at which the effect is half-maximal.

Consider `CC1(C)c2nc(-c3ccc(F)cc3)c(Nc3ccc(Cl)cc3)n2CCN1C(=O)CN` [Compound 417, 2-amino-1-(3-(4-chlorophenylamino)-2-(4-fluorophenyl)-8,8-dimethyl-5,6-dihydroimidazo[1,2-a]pyrazin-7(8H)-yl)ethanone], for which the EC50 in the test with W2 strain was found to be 6 nM; with 3D7 P. falciparum strain it was 10 nM.
Turning to `CC1(C)NCCn2c1nc(-c1ccc(F)cc1)c2Nc1cccc(C(F)(F)F)c1` [Compound 515], the concentration for a half-maximal effect (EC50) in the test with W2 strain turned out to be 34 nM; in the test with 3D7 P. falciparum strain, 40 nM.
With `N[C@@H](CC1CCC1)C(=O)N1CCn2c(nc(-c3ccc(F)cc3)c2Nc2ccc(F)cc2)C1` [Compound 467], the half-maximal effective concentration (EC50) worked out at 16 nM in the test on W2 strain and 20 nM in the test on 3D7 P. falciparum strain.
With `Cc1ccc(Nc2c(-c3ccc(F)c(C)c3)nc3n2CCNC3)cc1` [Compound 494], the EC50 was 2140 nM in the test with W2 strain and 2820 nM in the test with 3D7 P. falciparum strain.
The corresponding values for `CC(C)[C@H](O)C(=O)N1CCn2c(nc(-c3ccc(F)cc3)c2Nc2ccc(Cl)c(F)c2)C1` [Compound 489] are 9 nM and 10 nM.
In the same order, the values of `CC1(C)c2nc(-c3ccc(F)cc3)c(Nc3cccc(C(F)(F)F)c3)n2CCN1C(=O)C(F)(F)F` [Compound 528] are 121 nM and 150 nM.
The corresponding values for `N[C@@H](CC1CC1)C(=O)N1CCn2c(nc(-c3ccc(F)cc3)c2Nc2ccc(Cl)c(F)c2)C1` [Compound 488] are 13 nM and 20 nM.
As to `CC1(C)c2nc(-c3ccc(F)cc3)c(NC3CCCCC3)n2CCN1C(=O)CN` [Compound 531], the EC50 with W2 strain was found to be 57 nM; in the test on 3D7 P. falciparum strain, 40 nM.
The corresponding values for `CC1(C)NC(=O)Cn2c1nc(-c1ccc(F)cc1)c2Nc1cccc(F)c1` [Compound 501] are 305 nM and 400 nM.
For the compound `Cc1ccc(Nc2c(-c3ccncc3)nc3n2CCN(C(=O)C(C)(C)N)C3)cc1` [Compound 398], the results for the half-maximal effective concentration (EC50) with W2 strain and in the test on 3D7 P. falciparum strain were 2680 nM and 2730 nM, respectively.
In the same order, the values of `N[C@@H](Cc1ccc(F)cc1)C(=O)N1CCn2c(nc(-c3ccc(F)cc3)c2Nc2ccc(F)cc2)C1` [Compound 473] are 21 nM and 30 nM.
Take `CC1(C)Cn2c(nc(-c3ccc(F)cc3)c2Nc2ccc(Cl)cc2)CN1` [Compound 558]: the figures for the concentration giving a half-maximal response (EC50) in the test with W2 strain and with 3D7 P. falciparum strain were 89 nM and 60 nM, respectively.
The corresponding values for `CC(C)[C@H]1c2nc(-c3ccc(F)cc3)c(Nc3ccc(Cl)c(F)c3)n2CCN1C(=O)CN` [Compound 595] are 485 nM and 340 nM.
In the case of `CC1(C)c2nc(-c3ccc(F)cc3)c(Nc3cccc(F)c3)n2CCN1C(=O)C(F)(F)F` [Compound 516], the EC50 in the test on W2 strain came to 26 nM; in the test on 3D7 P. falciparum strain, 30 nM.
In the same order, the values of `CC1(C)NCCn2c1nc(-c1ccc(F)cc1)c2Nc1ccc(C#N)cc1` [Compound 426] are 271 nM and 180 nM.
In the same order, the values of `Cc1ccc(Nc2c(-c3ccc(F)cc3)nc3n2CCN(C(=O)[C@@H](N)CC2CCC2)C3)cc1` [Compound 479] are 12 nM and 20 nM.
In the same order, the values of `CCN(c1cccc(F)c1)c1c(-c2ccc(F)cc2)nc2n1CCNC2` [Compound 446] are 243 nM and 310 nM.
Take `CC1(C)Cn2c(nc(-c3ccc(F)cc3)c2Nc2ccc(C#N)c(F)c2)CN1` [Compound 581]: the EC50 worked out at 668 nM in the test with W2 strain and 650 nM in the test on 3D7 P. falciparum strain.
In the same order, the values of `CC(C)C[C@H](N)C(=O)N1CCn2c(nc(-c3ccc(F)cc3)c2Nc2ccc(F)cc2)C1` [Compound 468] are 20 nM and 30 nM.
In the case of `N[C@H](C(=O)N1CCn2c(nc(-c3ccc(F)cc3)c2Nc2ccc(F)cc2)C1)C1CC1` [Compound 465], the EC50 is 2 nM in the test on W2 strain and 1.9 nM in the test on 3D7 P. falciparum strain.
For the compound `CC1(C)NCCn2c1nc(-c1ccc(F)cc1)c2Nc1ccc(Cl)c(F)c1` [Compound 420], the concentration for a half-maximal effect (EC50) in the test with W2 strain amounted to 28 nM; with 3D7 P. falciparum strain, 20 nM.
The corresponding values for `Cc1ccc(Nc2c(-c3ccc(F)c(C)c3)nc3n2CCN(C(=O)C(C)(C)N)C3)cc1` [Compound 518] are 2890 nM and 4980 nM.
The corresponding values for `CC(C)(N)C(=O)N1CCn2c(nc(-c3ccc(F)cc3)c2Nc2ccc(Cl)c(Cl)c2)C1(C)C` [Compound 587] are 12 nM and 10 nM.
With `C[C@H]1NC(=O)Cn2c1nc(-c1ccc(F)cc1)c2Nc1ccc(Cl)cc1` [Compound 565], the EC50 in the test on W2 strain was 105 nM; in the test on 3D7 P. falciparum strain it was 70 nM.
The corresponding values for `CC(C)[C@H]1NC(=O)Cn2c1nc(-c1ccc(F)cc1)c2Nc1ccc(Cl)c(F)c1` [Compound 550] are 3600 nM and 2560 nM.
For the compound `Cc1ccc(Nc2c(-c3ccc(F)cc3)nc3n2CCN(C(=O)C(C)(N)CO)C3)cc1` (stereo not drawn) [Compound 505], the EC50 with W2 strain worked out at 116 nM; in the test with 3D7 P. falciparum strain it was 140 nM.
The corresponding values for `CC1(C)NC(=O)Cn2c1nc(-c1ccc(F)cc1)c2Nc1ccc(S(C)(=O)=O)cc1` [Compound 567] are 8460 nM and 6460 nM.
The corresponding values for `N[C@@H](Cc1cscn1)C(=O)N1CCn2c(nc(-c3ccc(F)cc3)c2Nc2ccc(Cl)cc2)C1` [Compound 461] are 22 nM and 30 nM.
As to `CC(C)(N)C(=O)N1CCn2c(nc(-c3ccc(F)cc3)c2Nc2ccc(C#N)c(Cl)c2)C1(C)C` [Compound 591], the EC50 in the test with W2 strain was found to be 46 nM; in the test with 3D7 P. falciparum strain it was 60 nM.
In the same order, the values of `Cc1ccc(Nc2c(-c3ccc(F)cc3)nc3n2CCN(C(=O)[C@@](C)(N)Cc2ccc(F)cc2)C3)cc1` [Compound 502] are 1370 nM and 1390 nM.
On to `CN1CCN(c2ccc(Nc3c(-c4ccc(F)cc4)nc4n3CCNC4(C)C)cc2)CC1` [Compound 572], for which the concentration giving a half-maximal response (EC50) stood at 8730 nM in the test on W2 strain and 11200 nM in the test on 3D7 P. falciparum strain.
As to `Cc1ccc(Nc2c(-c3ccc(F)c(F)c3)nc3n2CCN(C(=O)[C@H](C)N)C3)cc1` [Compound 406], the EC50 with W2 strain was 40 nM; in the test with 3D7 P. falciparum strain, 60 nM.
For `Cc1ccc(Nc2c(-c3ccc(F)cc3)nc3n2CCN(C(=O)C(C)(C)N)C3(C)C)cc1C#N` [Compound 590], the figures for the concentration giving a half-maximal response (EC50) with W2 strain and with 3D7 P. falciparum strain were 18 nM and 30 nM, respectively.
As for `CC1(C)NC(=O)Cn2c1nc(-c1ccc(F)c(F)c1)c2Nc1ccc(Cl)c(F)c1` [Compound 551], the 50% effective concentration (EC50) with W2 strain was found to be 98 nM; in the test with 3D7 P. falciparum strain it was 40 nM.
With `Cc1ccc(Nc2c(-c3cccc(F)c3)nc3n2C(C)(C)CN(C(=O)CN)C3)cc1` [Compound 594], the EC50 was 32 nM in the test on W2 strain and 20 nM in the test with 3D7 P. falciparum strain.
Take `N[C@H](C(=O)N1CCn2c(nc(-c3ccc(F)cc3)c2Nc2ccc(Cl)cc2)C1)C1CC1` [Compound 450]: the EC50 came to 15 nM with W2 strain and 20 nM with 3D7 P. falciparum strain.
In the same order, the values of `N[C@H](C(=O)N1CCn2c(nc(-c3ccc(F)cc3)c2Nc2ccc(Cl)c(F)c2)C1)c1ccc(F)cc1` [Compound 490] are 33 nM and 50 nM.
As to `Cc1ccc(Nc2c(-c3ccc(F)cc3)nc3n2CCN(C(=O)CNC(C)(C)C)C3)cc1` [Compound 399], the EC50 stood at 196 nM in the test with W2 strain and 220 nM in the test with 3D7 P. falciparum strain.
The corresponding values for `O=C([C@@H]1CCN1)N1CCn2c(nc(-c3ccc(F)cc3)c2Nc2ccc(F)cc2)C1` [Compound 477] are 55 nM and 70 nM.

These data come from patent publication US9469645B2, “Compounds and compositions for the treatment of parasitic diseases” (Novartis AG, priority 2009, dated 2016).
